Test results published in patent US11912693B2, “Compounds for modulating S1P1 activity and methods of using the same” (TREVENA, INC., priority 2017, dated 2024).

Assays:
[1] = target: T1, human sphingosine-1-phosphate receptor 1 (S1P1) (Homo sapiens (Human), UniProt P21453); assay: Inhibition of cAMP production (HTRF cAMP HiRange), S1P1 CHO-K1 cells; format: cell-based; conditions: for Emax: CHO-K1, efficacy (SPAN) normalized to fingolimod, read-out: hS1P1 cAMP SPAN; for hS1P1 cAMP pEC50: inhibition of cAMP production, S1P1 CHO-K1 cells
Method in brief: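 CHO-K1 cells stably co-expressing human S1P1 (C-terminal Prolink tag) and EA-β-arrestin2 were grown in AssayComplete Media 6 at 37° C. and 5% CO2, plated, and incubated overnight. Agonist-driven inhibition of intracellular cAMP was read by TR-FRET with the HTRF cAMP HiRange kit on a PheraStar reader. Potency is pEC50, and efficacy (SPAN) is normalized to fingolimod.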
Target sequence in this assay (P21453 whole entry, looked up): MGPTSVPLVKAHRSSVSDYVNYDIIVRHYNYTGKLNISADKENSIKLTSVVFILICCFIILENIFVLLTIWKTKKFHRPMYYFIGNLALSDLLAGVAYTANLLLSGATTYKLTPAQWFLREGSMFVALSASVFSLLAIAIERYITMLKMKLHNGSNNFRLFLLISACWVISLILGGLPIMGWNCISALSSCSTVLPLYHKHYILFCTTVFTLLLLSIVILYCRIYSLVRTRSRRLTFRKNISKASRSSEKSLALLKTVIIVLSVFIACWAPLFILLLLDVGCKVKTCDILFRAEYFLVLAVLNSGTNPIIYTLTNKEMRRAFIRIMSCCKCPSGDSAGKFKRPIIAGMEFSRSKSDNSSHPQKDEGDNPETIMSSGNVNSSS

[2] = target: T1, human sphingosine-1-phosphate receptor 1 (S1P1); assay: β-Arrestin2 recruitment assay (PathHunter), S1P1 CHO-K1 cells; format: cell-based; conditions: for Emax: CHO-K1, efficacy (SPAN) normalized to fingolimod, read-out: hS1P1 B-arrestin2 SPAN; for hS1P1 B-arrestin2 pEC50: β-arrestin2 recruitment, S1P1 CHO-K1 cells
Method in brief: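 Enzyme-fragment complementation read-out: agonist-driven β-arrestin2 binding to ProLink-tagged human S1P1 in stable CHO-K1 cells restores β-galactosidase, measured 1 h at room temperature after a 60 min 37° C. compound incubation. Potency as pEC50, efficacy relative to fingolimod (SPAN).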
Target sequence in this assay (P21453 whole entry, looked up): as above
Target sequence in this assay (P32121 whole entry partner, looked up): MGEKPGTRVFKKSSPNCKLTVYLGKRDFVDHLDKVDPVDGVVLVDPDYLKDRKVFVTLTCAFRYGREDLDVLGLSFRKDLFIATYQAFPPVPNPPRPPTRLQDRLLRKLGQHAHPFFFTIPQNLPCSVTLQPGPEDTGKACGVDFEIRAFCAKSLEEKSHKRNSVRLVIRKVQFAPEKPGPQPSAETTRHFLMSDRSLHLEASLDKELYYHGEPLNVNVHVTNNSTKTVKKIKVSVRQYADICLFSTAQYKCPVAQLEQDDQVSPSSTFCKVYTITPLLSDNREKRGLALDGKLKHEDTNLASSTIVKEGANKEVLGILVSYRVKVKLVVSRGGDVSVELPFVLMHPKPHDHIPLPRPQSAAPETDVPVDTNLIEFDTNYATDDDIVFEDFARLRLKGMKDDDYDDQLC

[3] = system: paclitaxel induced peripheral neuropathy; assay: Reversal of allodynia induced by paclitaxel in mice (s.c. or p.o., von Frey frequency method); format: in vivo, c57bl/6 mice; conditions: Mus musculus, po, 1 h, 3 mg/kg p.o., tested 60 min after dosing, read-out: Screen @ 3 mg/kg po (% MPE)
Procedure: Compounds were tested for efficacy in mouse models of chemotherapy induced peripheral neuropathy. […] For these studies […]/6 mice are habituated to the test environment and baseline measurements of pain sensitivity are assessed. To determine mechanical responses, the threshold for responses to punctate mechanical stimuli (mechanical hyperalgesia) was tested according to the frequency method. In brief, the plantar surface of the animal hindpaw was stimulated with a single von Frey monofilament (0.4 g) for approximately 1-2 seconds. If there was a withdrawal response, it was recorded as a positive response. A response was defined as a lifting or shaking of the paw upon stimulation. This was repeated ten times for each mouse. The final measurement for each mouse is the % non-response to stimulation for the ten trials. The % non-response to stimulation is converted to a % MPE. For paclitaxel induced peripheral neuropathy, a series of injections of PAC (6 mg/kg, i.p.) on days 1, 3, 5 and 7 is used to induce peripheral neuropathy. After approximately 14 days from the initiation of PAC injections, animals are re-assessed for mechanical sensitivity. […] On test day animals are dosed with compounds either subcutaneously or orally and tested for mechanical response by the frequency method either 30 min (s.c.) or 60 min (p.o.) after drug administration. Data is presented as a % MPE. For oxaliplatin induced peripheral neuropathy, a series of injections of OXA (4 mg/kg, i.p.) on days 1-5 is used to induce peripheral neuropathy. After approximately 14 days from the initiation of PAC injections, animals are re-assessed for mechanical sensitivity. […] On test day animals are dosed with compounds subcutaneously and tested for mechanical response by the frequency method 30 min after drug administration. Data is presented as a % MPE. One or more of the compounds show reversal of chemotherapeutic induced peripheral neuropathy.

Row | Emax [1] [%] | hS1P1 cAMP pEC50 [1] | Emax [2] [%] | hS1P1 B-arrestin2 pEC50 [2] | SMILES | inhibition in vivo at 3 mg/kg [3] [%]
1 | > 75 | >6.5 | > 75 | >5 | CC(F)CNc1ccc(-c2nc(-c3ccc4c(c3)CCC(=O)N4)no2)cc1C#N (stereo not shown) [Compound 348, 2-[(2-fluoropropyl)amino]-5-[3-(2-oxo-1,2,3,4-tetrahydroquinolin-6-yl)-1,2,4-oxadiazol-5-yl]benzonitrile] | > 50
2 | > 75 | >6.5 | > 75 | >5 | N#Cc1cc(-c2nnc(-c3ccc4[nH]ncc4c3)o2)ccc1NCC(F)F [Compound 354, 2-[(2,2-difluoroethyl)amino]-5-[5-(1H-indazol-5-yl)-1,3,4-oxadiazol-2-yl]benzonitrile] | > 50
3 | > 75 | >6.5 | > 75 | >5 | N#Cc1cc(-c2nnc(-c3ccc4[nH]cnc4c3)o2)ccc1NCCF [Compound 358, 5-[5-(1H-1,3-benzodiazol-5-yl)-1,3,4-oxadiazol-2-yl]-2-[(2-fluoroethyl)amino]benzonitrile] | > 50
4 | > 75 | >6.5 | > 75 | >5 | N#Cc1cc(-c2nnc(-c3ccc4[nH]cnc4c3)o2)ccc1NCC(F)F [Compound 359, 5-[5-(1H-1,3-benzodiazol-5-yl)-1,3,4-oxadiazol-2-yl]-2-[(2,2-difluoroethyl)amino]benzonitrile] | > 50
5 | – | >6.5 | – | <5 | CCC1(CC)CC(=O)c2cc(-c3nc(-c4ccc5c(c4)CCC(=O)N5)no3)ccc2O1 [Compound 415, 6-(5-(2,2-diethyl-4-oxochroman-6-yl)-1,2,4-oxadiazol-3-yl)-3,4-dihydroquinolin-2(1H)-one] | < 50
6 | – | >6.5 | – | >5 | CC(C)Nc1ccc(-c2nc(-c3ccc4c(c3)NC(=O)CC4)no2)cc1C#N [Compound 435, 2-(isopropylamino)-5-(3-(2-oxo-1,2,3,4-tetrahydroquinolin-7-yl)-1,2,4-oxadiazol-5-yl)benzonitrile] | > 50
7 | – | >6.5 | – | >5 | CC(C)Nc1ccc(-c2nc(-c3ccc4c(c3)CCNC4=O)no2)cc1C#N [Compound 442, 2-(isopropylamino)-5-(3-(1-oxo-1,2,3,4-tetrahydroisoquinolin-6-yl)-1,2,4-oxadiazol-5-yl)benzonitrile] | > 50
8 | – | >6.5 | – | >5 | N#Cc1cc(-c2nc(-c3ccc4c(c3)NC(=O)CC4)no2)ccc1NCC1CC1 [Compound 471, 2-((cyclopropylmethyl)amino)-5-(3-(2-oxo-1,2,3,4-tetrahydroquinolin-7-yl)-1,2,4-oxadiazol-5-yl)benzonitrile] | < 50
9 | – | >6.5 | – | >5 | N#Cc1cc(-c2nc(-c3ccc4c(c3)CCC(=O)N4)no2)ccc1NCC(F)(F)F [Compound 472, 5-[3-(2-oxo-1,2,3,4-tetrahydroquinolin-6-yl)-1,2,4-oxadiazol-5-yl]-2-[(2,2,2-trifluoroethyl)amino]benzonitrile] | > 50
10 | – | >6.5 | – | >5 | CCC1(CC)CC(=O)c2cc(-c3nc(-c4cncc(N)c4)no3)ccc2O1 [Compound 502, 6-(3-(5-aminopyridin-3-yl)-1,2,4-oxadiazol-5-yl)-2,2-diethylchroman-4-one] | > 50
11 | – | >6.5 | – | >5 | CCC1(CC)CC(=O)c2cc(-c3nc(-c4ccnc(N)c4)no3)ccc2O1 [Compound 513, 6-(3-(2-aminopyridin-4-yl)-1,2,4-oxadiazol-5-yl)-2,2-diethylchroman-4-one] | < 50
12 | – | >6.5 | – | >5 | CC(C)Nc1ccc(-c2nc(-c3ccc4c(c3)C(=O)NCC4)no2)cc1C#N [Compound 514, 2-(isopropylamino)-5-(3-(1-oxo-1,2,3,4-tetrahydroisoquinolin-7-yl)-1,2,4-oxadiazol-5-yl)benzonitrile] | > 50
13 | > 75 | >6.5 | > 75 | >5 | Cc1cn(C)nc1-c1noc(-c2ccc3c(c2)nnn3C(C)C)n1 [Compound 519, 5-[3-(1,4-dimethyl-1H-pyrazol-3-yl)-1,2,4-oxadiazol-5-yl]-1-(propan-2-yl)-1H-1,2,3-benzotriazole] | < 50
14 | – | >6.5 | – | >5 | CCC1(CC)CC(=O)c2cc(-c3nc(-c4cccnc4F)no3)ccc2O1 [Compound 547, 2,2-diethyl-6-(3-(2-fluoropyridin-3-yl)-1,2,4-oxadiazol-5-yl)chroman-4-one] | > 50
15 | – | >6.5 | – | >5 | CCC1(CC)CC(=O)c2cc(-c3nc(-c4cnccc4C(F)(F)F)no3)ccc2O1 [Compound 558, 2,2-diethyl-6-(3-(4-(trifluoromethyl)pyridin-3-yl)-1,2,4-oxadiazol-5-yl)chroman-4-one] | > 50
16 | – | >6.5 | – | >5 | Cc1nc2cc(-c3nnc(-c4ccc(NC(C)C)c(C#N)c4)o3)ccc2[nH]1 [Compound 560, 5-[5-(2-methyl-1H-1,3-benzodiazol-5-yl)-1,3,4-oxadiazol-2-yl]-2-[(propan-2-yl)amino]benzonitrile] | > 50
17 | – | >6.5 | – | >5 | CCC1(CC)CC(=O)c2cc(-c3nc(-c4cccnc4C(F)(F)F)no3)ccc2O1 [Compound 562, 2,2-diethyl-6-(3-(2-(trifluoromethyl)pyridin-3-yl)-1,2,4-oxadiazol-5-yl)chroman-4-one] | > 50
18 | – | >6.5 | – | >5 | CCC1(CC)CC(=O)c2cc(-c3nc(-c4cncc(C)c4)no3)ccc2O1 [Compound 563, 2,2-diethyl-6-(3-(5-methylpyridin-3-yl)-1,2,4-oxadiazol-5-yl)chroman-4-one] | < 50
19 | – | >6.5 | – | >5 | CCC1(CC)CC(=O)c2cc(-c3nc(-c4cccnc4C)no3)ccc2O1 [Compound 564, 2,2-diethyl-6-(3-(2-methylpyridin-3-yl)-1,2,4-oxadiazol-5-yl)chroman-4-one] | > 50
20 | – | >6.5 | – | >5 | CCC1(CC)CC(=O)c2cc(-c3nc(-c4ccc(NS(C)(=O)=O)cc4OC)no3)ccc2O1 [Compound 568, N-{4-[5-(2,2-diethyl-4-oxo-3,4-dihydro-2H-1-benzopyran-6-yl)-1,2,4-oxadiazol-3-yl]-3-methoxyphenyl}methanesulfonamide] | < 50
21 | – | >6.5 | – | >5 | CC(C)Nc1ccc(-c2nnc(-c3ccc4ncn(C)c4c3)o2)cc1C#N [Compound 579, 5-[5-(1-methyl-1H-1,3-benzodiazol-6-yl)-1,3,4-oxadiazol-2-yl]-2-[(propan-2-yl)amino]benzonitrile] | > 50
22 | – | >6.5 | – | >5 | Cn1cnc2ccc(-c3nnc(-c4ccc(NCC(F)F)c(C#N)c4)o3)cc21 [Compound 580, 2-[(2,2-difluoroethyl)amino]-5-[5-(1-methyl-1H-1,3-benzodiazol-6-yl)-1,3,4-oxadiazol-2-yl]benzonitrile] | > 50
